{"source": "patent US10112941B2", "about": "“Tricyclic compounds as anticancer agents” (BRISTOL-MYERS SQUIBB COMPANY, priority 2013, dated 2018)", "note": "pIC50: −log10 of the molar value."}
{"target": "BRD4 (Homo sapiens, UniProt O60885)", "test": "Time Resolved Fluorescence Resonance Energy Transfer (TR-FRET) binding assay, BRD4", "conditions": "one of the FRET assays described; read-out: FRET BRD4 IC50"}
{"smiles": "Cc1noc(C)c1-c1cnc2c3ccc(S(C)(=O)=O)cc3n(Cc3ccccc3)c2c1", "note": "[Example 52, 4-(5-Benzyl-7-(methylsulfonyl)-5H-pyrido[3,2-b]indol-3-yl)-3,5-dimethyl-1,2-oxazole]", "pIC50": "> 7.60"}
{"smiles": "Cc1noc(C)c1-c1cnc2c3c(C(C)(C)O)cccc3n(Cc3ccccc3)c2c1", "note": "[Example 53, 2-[5-Benzyl-3-(dimethyl-1,2-oxazol-4-yl)-5H-pyrido[3,2-b]indol-9-yl]propan-2-ol]", "pIC50": "> 5.82"}
{"smiles": "Cc1nnn(C)c1-c1cnc2c3ccc(C(C)(C)O)cc3n([C@@H](CCC(F)(F)F)c3ccccc3)c2c1", "note": "[Example 57]", "pIC50": "> 8.30"}
{"smiles": "Cc1nnn(C)c1-c1cnc2c3ccc(C(C)(C)O)cc3n([C@H](CCC(F)(F)F)c3ccccc3)c2c1", "note": "[Example 58]", "pIC50": "> 8.30"}
{"smiles": "Cc1nnn(C)c1-c1cnc2c3ccc(C(C)(C)O)cc3n([C@H](c3ccccn3)C3CCOCC3)c2c1", "note": "[Example 62]", "pIC50": "> 7.60"}
{"smiles": "Cc1nnn(C)c1-c1cnc2c3ccc(C(C)(C)O)cc3n([C@@H](c3ccccn3)C3CCOCC3)c2c1", "note": "[Example 63]", "pIC50": "> 7.60"}
{"smiles": "Cc1nnn(C)c1-c1cnc2c3ccc(C(C)(C)O)cc3n([C@H](c3ccccc3F)C3CCOCC3)c2c1", "note": "[Example 64]", "pIC50": "> 8.30"}
{"smiles": "Cc1nnn(C)c1-c1cnc2c3ccc(C(C)(C)O)cc3n([C@@H](c3ccccc3F)C3CCOCC3)c2c1", "note": "[Example 65]", "pIC50": "> 8.30"}
{"smiles": "Cc1nnn(C)c1-c1cnc2c3ccc(C(C)(C)O)cc3n(Cc3ccccc3)c2c1", "note": "[Example 69, 2-[5-Benzyl-3-(dimethyl-1H-1,2,3-triazol-5-yl)-5H-pyrido[3,2-b]indol-7-yl]propan-2-ol]", "pIC50": "> 8.30"}
{"smiles": "Cc1nnn(C)c1-c1cnc2c3ccc(C(C)(C)O)cc3n([C@H](c3ccc(F)cc3)C3CCOCC3)c2c1", "note": "[Example 72]", "pIC50": "> 7.60"}
{"smiles": "Cc1nnn(C)c1-c1cnc2c3ccc(C(C)(C)O)cc3n([C@H](c3ccccc3F)C3CCOCC3)c2c1", "note": "[Example 76]", "pIC50": "> 8.30"}
{"smiles": "Cc1nnn(C)c1-c1cnc2c3ccc(C(C)(C)O)cc3n([C@@H](c3ccccc3F)C3CCOCC3)c2c1", "note": "[Example 77]", "pIC50": "> 8.30"}
{"smiles": "Cc1noc(C)c1-c1cnc2c3ccc(C(C)(C)O)cc3n([C@H](CCC(F)(F)F)c3ccccc3C(F)(F)F)c2c1", "note": "[Example 84]", "pIC50": "> 5.82"}
{"smiles": "Cc1noc(C)c1-c1cnc2c3ccc(C(C)(C)O)cc3n([C@@H](CCC(F)(F)F)c3ccccc3Cl)c2c1", "note": "[Example 86]", "pIC50": "> 8.30"}
{"smiles": "Cc1noc(C)c1-c1cnc2c3ccc(C(C)(C)O)cc3n([C@H](CCC(F)(F)F)c3ccccc3Cl)c2c1", "note": "[Example 87]", "pIC50": "> 5.82"}
{"smiles": "Cn1nnc(CO)c1-c1cnc2c3ccc(C(C)(C)O)cc3n([C@H](c3ccccc3)C3CCOCC3)c2c1", "note": "[Example 88, (S)-2-(3-(4-(Hydroxymethyl)-1-methyl-1H-1,2,3-triazol-5-yl)-5-(phenyl(tetrahydro-2H-pyran-4-yl)methyl)-5H-pyrido[3,2-b]indol-7-yl)propan-2-ol]", "pIC50": "> 8.30"}
{"smiles": "COCc1nnn(C)c1-c1cnc2c3ccc(C(C)(C)O)cc3n([C@H](c3ccccc3)C3CCOCC3)c2c1", "note": "[Example 89, 2-{3-[4-(Methoxymethyl)-1-methyl-1H-1,2,3-triazol-5-yl]-5-[(S)-oxan-4-yl(phenyl)methyl]-5H-pyrido[3,2-b]indol-7-yl}propan-2-ol]", "pIC50": "> 7.60"}
{"smiles": "[2H][C@@](c1ccccc1)(C1CCOCC1)n1c2cc(C(C)(C)O)ccc2c2ncc(-c3c(C)nnn3C)cc21", "note": "[Example 90, 2-[3-(Dimethyl-1H-1,2,3-triazol-5-yl)-5-[(S)-oxan-4-yl(phenyl)(^2H)methyl]-5H-pyrido[3,2-b]indol-7-yl]propan-2-ol]", "pIC50": "> 8.30"}
{"smiles": "Cc1nnn(C)c1-c1cnc2c3ccc(C(C)(C)O)cc3n([C@@H](c3ccccc3)C3CCOCC3)c2c1", "note": "[Example 91, 2-[3-(dimethyl-1H-1,2,3-triazol-5-yl)-5-[(R)-oxan-4-yl(phenyl)(^2H)methyl]-5H-pyrido[3,2-b]indol-7-yl]propan-2-ol]", "pIC50": "> 7.60"}
{"smiles": "[2H][C@@](c1ccccc1F)(C1CCOCC1)n1c2cc(C(C)(C)O)ccc2c2ncc(-c3c(C)nnn3C)cc21", "note": "[Example 92, 2-[3-(Dimethyl-1H-1,2,3-triazol-5-yl)-5-[(S)-oxan-4-yl(2-fluorophenyl)(^2H)methyl]-5H-pyrido[3,2-b]indol-7-yl]propan-2-ol]", "pIC50": "> 8.30"}
{"smiles": "Cc1nnn(C)c1-c1cnc2c3ccc(C(C)(C)O)cc3n([C@@H](c3ccccc3F)C3CCOCC3)c2c1", "note": "[Example 93, 2-[3-(dimethyl-1H-1,2,3-triazol-5-yl)-5-[(R)-oxan-4-yl(2-fluorophenyl)(^2H)methyl]-5H-pyrido[3,2-b]indol-7-yl]propan-2-ol]", "pIC50": "> 8.30"}
{"smiles": "Cc1nnn(C)c1-c1cnc2c3c(F)cc(C(C)(C)O)cc3n([C@H](c3ccccc3F)C3CCOCC3)c2c1", "note": "[Example 114, 2-[3-(Dimethyl-1H-1,2,3-triazol-5-yl)-9-fluoro-5-[(S)-(2-fluorophenyl)(oxan-4-yl)methyl]-5H-pyrido[3,2-b]indol-7-yl]propan-2-ol]", "pIC50": "> 8.30"}
{"smiles": "Cc1nnn(C)c1-c1cnc2c3c(C(=O)NC4CC4)cccc3n([C@H](c3ccccc3)C3CCOCC3)c2c1", "note": "[Example 151, N-Cyclopropyl-3-(dimethyl-1H-1,2,3-triazol-5-yl)-5-[(S)-oxan-4-yl(phenyl)methyl]-5H-pyrido[3,2-b]indole-9-carboxamide]", "pIC50": "> 8.30"}
{"smiles": "Cc1nnn(C)c1-c1cnc2c3c(F)ccc(CO)c3n([C@H](c3ccccc3)C3CCOCC3)c2c1", "note": "[Example 152, [3-(Dimethyl-1H-1,2,3-triazol-5-yl)-9-fluoro-5-[(S)-oxan-4-yl(phenyl)methyl]-5H-pyrido[3,2-b]indol-6-yl]methanol]", "pIC50": "> 8.30"}
{"smiles": "Cc1nnn(C)c1-c1cnc2c3cc(CCC(C)(C)O)ccc3n([C@H](c3ccccc3)C3CCOCC3)c2c1", "note": "[Example 153, 4-[3-(Dimethyl-1H-1,2,3-triazol-5-yl)-5-[(S)-oxan-4-yl(phenyl)methyl]-5H-pyrido[3,2-b]indol-8-yl]-2-methylbutan-2-ol]", "pIC50": "> 8.30"}
{"smiles": "[2H]C([2H])([2H])c1nnn(C)c1-c1cnc2c3ccc(S(C)(=O)=O)cc3n(C(c3ccccc3)C3CCC(F)(F)CC3)c2c1", "note": "(centres unmarked) [Example 158, 5-{5-[(4,4-Difluorocyclohexyl)(phenyl)methyl]-7-methanesulfonyl-5H-pyrido[3,2-b]indol-3-yl}-4-(^2H3)methyl-1-methyl-1H-1,2,3-triazole]", "pIC50": "> 8.30"}
{"smiles": "[2H]C([2H])([2H])c1nnn(C)c1-c1cnc2c3ccc(S(C)(=O)=O)cc3n(C(c3ccccc3)C3CCC(F)(F)CC3)c2c1", "note": "(centres unmarked) [Example 159, 5-{5-[(4,4-Difluorocyclohexyl)(phenyl)methyl]-7-methanesulfonyl-5H-pyrido[3,2-b]indol-3-yl}-4-(^2H3)methyl-1-methyl-1H-1,2,3-triazole]", "pIC50": "> 8.30"}
{"smiles": "Cc1nnn(C)c1-c1cnc2c3c(S(C)(=O)=O)cc(F)c(F)c3n([C@H](c3ccccc3)C3CCOCC3)c2c1", "note": "[Example 160, 5-{6,7-Difluoro-9-methanesulfonyl-5-[(S)-oxan-4-yl(phenyl)methyl]-5H-pyrido[3,2-b]indol-3-yl}-1,4-dimethyl-1H-1,2,3-triazole]", "pIC50": "> 8.30"}
{"smiles": "[2H]C([2H])([2H])c1nnn(C)c1-c1cnc2c3c(S(C)(=O)=O)cc(F)c(F)c3n([C@H](c3ccccc3)C3CCOCC3)c2c1", "note": "[Example 161, 5-{6,7-Difluoro-9-methanesulfonyl-5-[(S)-oxan-4-yl(phenyl)methyl]-5H-pyrido[3,2-b]indol-3-yl}-4-(^2H3)methyl-1-methyl-1H-1,2,3-triazole]", "pIC50": "> 8.30"}
{"smiles": "[2H]C([2H])([2H])c1nnn(C)c1-c1cnc2c3c(S(C)(=O)=O)cc(OC)c(OC)c3n([C@H](c3ccccc3)C3CCOCC3)c2c1", "note": "[Example 162, 5-{9-Methanesulfonyl-6,7-dimethoxy-5-[(S)-oxan-4-yl(phenyl)methyl]-5H-pyrido[3,2-b]indol-3-yl}-4-(^2H3)methyl-1-methyl-1H-1,2,3-triazole]", "pIC50": "> 8.30"}
{"smiles": "[2H]C([2H])([2H])c1nnn(C)c1-c1cnc2c3c(S(C)(=O)=O)cc(F)c(OC)c3n([C@H](c3ccccc3)C3CCOCC3)c2c1", "note": "[Example 163, 5-{7-Fluoro-9-methanesulfonyl-6-methoxy-5-[(S)-oxan-4-yl(phenyl)methyl]-5H-pyrido[3,2-b]indol-3-yl}-4-(^2H3)methyl-1-methyl-1H-1,2,3-triazole]", "pIC50": "> 8.30"}
{"smiles": "Cc1noc(C)c1-c1cnc2c3ccc(S(C)(=O)=O)cc3n([C@H](c3ccccc3)C3CCOCC3)c2c1", "note": "[Example 171, 4-{7-Methanesulfonyl-5-[(S)-oxan-4-yl(phenyl)methyl]-5H-pyrido[3,2-b]indol-3-yl}-3,5-dimethyl-1,2-oxazole]", "pIC50": "> 8.30"}
{"smiles": "Cc1noc(C)c1-c1cnc2c3ccc(S(C)(=O)=O)cc3n([C@H](c3ccc(F)cc3)C3CCOCC3)c2c1", "note": "[Example 172, 4-{5-[(S)-(4-Fluorophenyl)(oxan-4-yl)methyl]-7-methanesulfonyl-5H-pyrido[3,2-b]indol-3-yl}-3,5-dimethyl-1,2-oxazole]", "pIC50": "> 8.30"}
{"smiles": "Cc1noc(C)c1-c1cnc2c3ccc(S(C)(=O)=O)cc3n([C@H](c3ccccc3F)C3CCOCC3)c2c1", "note": "[Example 173]", "pIC50": "> 8.30"}
{"smiles": "Cc1noc(C)c1-c1cnc2c3ccc(S(C)(=O)=O)cc3n([C@@H](c3ccccc3F)C3CCOCC3)c2c1", "note": "[Example 174]", "pIC50": "> 8.30"}
{"smiles": "Cc1nnn(C)c1-c1cnc2c3cc(C(C)(C)O)ccc3n([C@H](c3ccccc3)C3CCOCC3)c2c1", "note": "[Example 175, 2-[3-(Dimethyl-1H-1,2,3-triazol-5-yl)-5-[(S)-oxan-4-yl(phenyl)methyl]-5H-pyrido[3,2-b]indol-8-yl]propan-2-ol]", "pIC50": "> 8.30"}
{"smiles": "Cc1nnn(C)c1-c1cnc2c3cc(C(C)(C)O)ccc3n([C@H](c3ccc(F)cc3)C3CCOCC3)c2c1", "note": "[Example 176, 2-[3-(Dimethyl-1H-1,2,3-triazol-5-yl)-5-[(S)-(4-fluorophenyl)(oxan-4-yl)methyl]-5H-pyrido[3,2-b]indol-8-yl]propan-2-ol]", "pIC50": "> 8.30"}
{"smiles": "Cc1nnn(C)c1-c1cnc2c3ccc(S(C)(=O)=O)cc3n([C@H](c3ccccc3)C3CCOCC3)c2c1", "note": "[Example 177, 5-{7-Methanesulfonyl-5-[(S)-oxan-4-yl(phenyl)methyl]-5H-pyrido[3,2-b]indol-3-yl}-1,4-dimethyl-1H-1,2,3-triazole]", "pIC50": "> 8.30"}
